Measured values as given in patent US10782295B2, “Cysteine-reactive ligand discovery in proteomes” (THE SCRIPPS RESEARCH INSTITUTE, priority 2013, dated 2020).
pIC50: −log10 of the molar value.

Tested on: AKT1/2/3
Experiment: competitive isoTOP-ABPP, concentration-dependent HNE
Assay type: binding, human
Conditions: MDA-MB-231 proteome, read-out: IC50 for inhibition of cysteine (C311) in AKT1/2/3
Protocol: The MDA-MB-231 cell proteome was treated with varying concentrations of HNE (5, 10, 50, 100 and 500 μM) for 60 min and then the IA-labeling profile of each reaction was quantitatively compared to a DMSO-control sample by isoTOP-ABPP.
By combining the R values at all 5 HNE concentrations, we could extrapolate IC50 values for […] of IA probe-labeling for ˜700 of the 1100 cysteines (FIG. 3a).
HNE was purchased from EMD biosciences, 15d-PGJ2 was purchased from Cayman Chemicals and 2-HD was purchased from Santa Cruz Biotechnology. Proteome samples were diluted to a 4 mg protein/mL solution in PBS. […]
IA-probe labeled peptides were identified by SEQUEST2 and DTASelect3, and the quantification of heavy/light ratios (isoTOP-ABPP ratios, R) was performed by an in-house software (CIMAGE) as previously described. The software was advanced to be able to detect and quantify cases where near complete […] blockade of IA-probe labeling was achieved (e.g., very small or no light peak) and assign an empirical ratio cut-off of 15 to each of such cases. […] In the case of probe-modified peptides that were sequenced in one, but not the other runs, a featured algorithm of CIMAGE was utilized to identify the corresponding peak pairs in the runs without the SEQUEST identification and obtain quantification as previously described. […]

With `CCCCCC(O)/C=C/C=O` (stereo not shown) [4-HNE, 4-Hydroxynonenal] the pIC50 was 4.22.
